The record followed here is PubChem BioAssay AID1259411 (Chemical Carcinogenesis Research Information System (CCRIS), 2018).

Activity calls are given as the source filed them. How the calls were made is not given here.

The series relates to rodent carcinogenicity bioassays, tumor incidence. Briefly: CCRIS carcinogenicity studies. A digest of the protocol: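 Archive of carcinogenicity, mutagenicity, tumor promotion and tumor inhibition results drawn from journals, NCI reports and other sources, expert-reviewed; covers 1985-2011 and is no longer updated.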

Turning to `CC(C)C=O`, the carcinogen call is “inactive; negative” (Species: MOUSE, Strain/Sex: B6C3F1/FEMALE, Route: INHALATION, Dose: 0, 500, 1000, 2000 PPM 6 HR/D 5 D/WK FOR 105 WK (STUDY DURATION: 105 WK), Dose: 0, 500, 1000, 2000 PPM 6 HR/D 5 D/WK FOR 105 WK (STUDY DURATION: 105 WK)); “inactive; negative” (Species: MOUSE, Strain/Sex: B6C3F1/MALE, Route: INHALATION, Dose: 0, 500, 1000, 2000 PPM 6 HR/D 5 D/WK FOR 105 WK (STUDY DURATION: 105 WK), Dose: 0, 500, 1000, 2000 PPM 6 HR/D 5 D/WK FOR 105 WK (STUDY DURATION: 105 WK)); “inactive; negative” (Species: RAT, Strain/Sex: F344/FEMALE, Route: INHALATION, Dose: 0, 500, 1000, 2000 PPM 6 HR/D 5 D/WK FOR 105 WK (STUDY DURATION: 105 WK), Dose: 0, 500, 1000, 2000 PPM 6 HR/D 5 D/WK FOR 105 WK (STUDY DURATION: 105 WK)); “inactive; negative” (Species: RAT, Strain/Sex: F344/MALE, Route: INHALATION, Dose: 0, 500, 1000, 2000 PPM 6 HR/D 5 D/WK FOR 105 WK (STUDY DURATION: 105 WK), Dose: 0, 500, 1000, 2000 PPM 6 HR/D 5 D/WK FOR 105 WK (STUDY DURATION: 105 WK)).

For the compound `CC(C)CN(N=O)C(N)=O`, the carcinogen call (Species: RAT, Strain/Sex: DONRYU/FEMALE, Route: ORAL, Dose: 100, 200, 400 PPM IN DRINKING WATER, Dose: 100, 200, 400 PPM IN DRINKING WATER, Tumor Site: Type of Lesion: DUODENUM: BENIGN HEMANGIOENDOTHELIOMA, MALIGNANT HEMANGIOENDOTHELIOMA) was “active; positive”.

Turning to `CC(C)=CCC/C(C)=C/C=O`, the carcinogen call is “equivocal” (Species: MOUSE, Strain/Sex: B3C3F1/FEMALE (50), Route: ORAL, Dose: 0, 500, 1000, 2000 PPM IN MICROCAPSULES IN THE DIET FOR 2 YR (STUDY DURATION: 2 YR), Dose: 0, 500, 1000, 2000 PPM IN MICROCAPSULES IN THE DIET FOR 2 YR (STUDY DURATION: 2 YR), Tumor Site: Type of Lesion: LYMPHATIC SYSTEM: MALIGNANT LYMPHOMA); “inactive; negative” (Species: MOUSE, Strain/Sex: B6C3F1/MALE (50), Route: ORAL, Dose: 0, 500, 1000, 2000 PPM IN MICROCAPSULES IN THE DIET FOR 2 YR (STUDY DURATION: 2 YR), Dose: 0, 500, 1000, 2000 PPM IN MICROCAPSULES IN THE DIET FOR 2 YR (STUDY DURATION: 2 YR)); “inactive; negative” (Species: RAT, Strain/Sex: F344/FEMALE, Route: ORAL, Dose: 0, 1000, 2000, 4000 PPM IN MICROCAPSULES IN THE DIET FOR 2 YR (STUDY DURATION: 2 YR), Dose: 0, 1000, 2000, 4000 PPM IN MICROCAPSULES IN THE DIET FOR 2 YR (STUDY DURATION: 2 YR)); “inactive; negative” (Species: RAT, Strain/Sex: F344/MALE, Route: ORAL, Dose: 0, 1000, 2000, 4000 PPM IN MICROCAPSULES IN THE DIET FOR 2 YR (STUDY DURATION: 2 YR), Dose: 0, 1000, 2000, 4000 PPM IN MICROCAPSULES IN THE DIET FOR 2 YR (STUDY DURATION: 2 YR)).

For `O=[N+]([O-])c1ccc(N=Nc2c(O)ccc3ccccc23)c(Cl)c1`, the carcinogen call by setting is: (Species: MOUSE, Strain/Sex: ICR/FEMALE, Route: DERMAL, Dose: 0, 1 MG IN 0.1 ML DISTILLED WATER 2/WK FOR A MEAN TOTAL DOSE OF 117.1 MG (STUDY DURATION: 18 MO)) “inactive; negative”; (Species: MOUSE, Strain/Sex: ICR/MALE, Route: DERMAL, Dose: 0, 1 MG IN 0.1 ML DISTILLED WATER 2/WK FOR A MEAN TOTAL DOSE OF 117.1 MG (STUDY DURATION: 18 MO)) “inactive; negative”.

For the compound `O=C([O-])c1cc(N=Nc2ccc(-c3ccc(N/N=c4/c(=O)cc/c(=N\Nc5cc(S(=O)(=O)[O-])ccc5[O-])c4=O)cc3)cc2)ccc1[O-].[Cu+2].[Na+].[Na+]`, the carcinogen call was “active; positive” (Species: RAT, Strain/Sex: F344/FEMALE, Route: ORAL, Dose: 0, 190, 375, 750, 1500, 3000 PPM IN DIET FOR 91 D (STUDY DURATION: 93 D), Dose: 0, 190, 375, 750, 1500, 3000 PPM IN DIET FOR 91 D (STUDY DURATION: 93 D), Tumor Site: Type of Lesion: LIVER: HEPATOCELLULAR CARCINOMA OR NEOPLASTIC NODULE, FOCI OF CELLULAR ALTERATION OR BASOPHILIC FOCI) and “active; positive” (Species: RAT, Strain/Sex: F344/MALE, Route: ORAL, Dose: 0, 190, 375, 750, 1500, 3000 PPM IN DIET FOR 91 D (STUDY DURATION: 93 D), Dose: 0, 190, 375, 750, 1500, 3000 PPM IN DIET FOR 91 D (STUDY DURATION: 93 D), Tumor Site: Type of Lesion: LIVER: FOCI OF CELLULAR ALTERATION OR BASOPHILIC FOCI).

Consider `O=P(O)(O)O`, for which the carcinogen call reads like this: (Species: MOUSE, Strain/Sex: B6C3F1/FEMALE, Route: GAVAGE, Dose: 0, 500, 1000 MG/KG IN DEIONIZED WATER 5D/WK FOR 103 WK (STUDY DURATION: 105 WK), Dose: 0, 500, 1000 MG/KG IN DEIONIZED WATER 5D/WK FOR 103 WK (STUDY DURATION: 105 WK)) “inactive; negative”; (Species: MOUSE, Strain/Sex: B6C3F1/MALE, Route: GAVAGE, Dose: 0, 500, 1000 MG/KG IN DEIONIZED WATER 5D/WK FOR 103 WK (STUDY DURATION: 105 WK), Dose: 0, 500, 1000 MG/KG IN DEIONIZED WATER 5D/WK FOR 103 WK (STUDY DURATION: 105 WK)) “inactive; negative”.

With `FCC(F)(F)F`, the carcinogen call (Species: MOUSE, Strain/Sex: B6C3F1/FEMALE, Route: INHALATION, Dose: 0, 2500, 15000, 75000 PPM SNOUT-ONLY INHALATION 1 HR/D FOR AT LEAST 104 WK (STUDY DURATION: 106 WK), Dose: 0, 2500, 15000, 75000 PPM SNOUT-ONLY INHALATION 1 HR/D FOR AT LEAST 104 WK (STUDY DURATION: 106 WK)) was “inactive; negative”; the carcinogen call (Species: MOUSE, Strain/Sex: B6C3F1/MALE, Route: INHALATION, Dose: 0, 2500, 15000, 75000 PPM SNOUT-ONLY INHALATION 1 HR/D FOR AT LEAST 104 WK (STUDY DURATION: 106 WK), Dose: 0, 2500, 15000, 75000 PPM SNOUT-ONLY INHALATION 1 HR/D FOR AT LEAST 104 WK (STUDY DURATION: 106 WK)) was “inactive; negative”; the carcinogen call (Species: RAT, Strain/Sex: ALPK:APFSD/FEMALE, Route: INHALATION, Dose: 0, 2500, 10000, 50000 PPM 6 HR/D 5 D/WK FOR 104 WK (STUDY DURATION: 104 WK), Dose: 0, 2500, 10000, 50000 PPM 6 HR/D 5 D/WK FOR 104 WK (STUDY DURATION: 104 WK)) is “inactive; negative”; the carcinogen call (Species: RAT, Strain/Sex: ALPK:APFSD/MALE, Route: INHALATION, Dose: 0, 2500, 10000, 50000 PPM 6 HR/D 5 D/WK FOR 104 WK (STUDY DURATION: 104 WK), Dose: 0, 2500, 10000, 50000 PPM 6 HR/D 5 D/WK FOR 104 WK (STUDY DURATION: 104 WK), Tumor Site: Type of Lesion: TESTES: LEYDIG CELL ADENOMA) is “active; positive”; the carcinogen call (Species: RAT, Strain/Sex: WISTAR/FEMALE, Route: INHALATION, Dose: 0, 2500, 10000, 50000 PPM SNOUT-ONLY INHALATION 1 HR/D FOR AT LEAST 108 WK (STUDY DURATION: 110 WK), Dose: 0, 2500, 10000, 50000 PPM SNOUT-ONLY INHALATION 1 HR/D FOR AT LEAST 108 WK (STUDY DURATION: 110 WK)) was “inactive; negative”; the carcinogen call (Species: RAT, Strain/Sex: WISTAR/MALE, Route: INHALATION, Dose: 0, 2500, 10000, 50000 PPM SNOUT-ONLY INHALATION 1 HR/D FOR AT LEAST 108 WK (STUDY DURATION: 110 WK), Dose: 0, 2500, 10000, 50000 PPM SNOUT-ONLY INHALATION 1 HR/D FOR AT LEAST 108 WK (STUDY DURATION: 110 WK)) is “inactive; negative”.

In the case of `c1ccc2c(c1)cc1c3ccccc3c3cccc4ccc2c1c43`, the carcinogen call (Species: MOUSE, Route: DERMAL, Tumor Site: Type of Lesion: INTEGUMENTARY SYSTEM (SKIN)) is “active; positive” and the carcinogen call (Species: MOUSE, Route: SUBCUTANEOUS, Tumor Site: Type of Lesion: INJECTION SITE) was “active; positive”.

`Cc1c(N)nc(C)c2c1[nH]c1ccccc12`: the carcinogen call (Species: MOUSE, Strain/Sex: CDF1/FEMALE, Route: ORAL, Dose: 0, 200 PPM IN DIET FOR 621 D, Tumor Site: Type of Lesion: LIVER: HEPATOCELLULAR CARCINOMA) was “active; positive”; the carcinogen call (Species: MOUSE, Strain/Sex: DDY/FEMALE, Route: BLADDER IMPLANT, Dose: 0, 5% IN PARAFFIN PELLET (STUDY DURATION: 40 WK), Tumor Site: Type of Lesion: URINARY BLADDER: TRANSITIONAL CELL CARCINOMA) was “active; positive”; the carcinogen call (Species: RAT, Strain/Sex: F344/FEMALE, Route: ORAL, Dose: 0, 0.02% IN PELLET DIET FOR DURATION OF STUDY (STUDY DURATION: 365 D), Tumor Site: Type of Lesion: LIVER: TRABECULAR CARCINOMA, ADENOCARCINOMA) was “active; positive”; the carcinogen call (Species: RAT, Strain/Sex: F344/MALE, Route: ORAL, Dose: 0, 0.015% IN PELLET DIET FOR DURATION OF STUDY (STUDY DURATION: 365 D), Tumor Site: Type of Lesion: LIVER: TRABECULAR CARCINOMA, ADENOCARCINOMA) was “active; positive”.
